Measurements taken from patent publication US20110319484A1, “NEUROPROTECTIVE COMPOUNDS” (Parque Tecnologico de Ciencias de la Salud, priority 2009, published 2011).

Key:
HMG-CoA reductase enzyme = molecular target: T1, HMG-CoA reductase enzyme (Homo sapiens, UniProt P04035); assay: HMG-CoA reductase inhibition, spectrophotometric NADPH oxidation at 340 nm; assay type: biochemical; details: for IC50: four independent assays, Trimmed Spearman-Karber method; for inhibition power of HMG-CoA reductase, times less than that of atorvastatin: relative to atorvastatin
T1 construct: the oxidation of the NADPH by the catalytic subunit of the HMG-CoA reductase
T1 sequence (P04035 340-888 limits assumed): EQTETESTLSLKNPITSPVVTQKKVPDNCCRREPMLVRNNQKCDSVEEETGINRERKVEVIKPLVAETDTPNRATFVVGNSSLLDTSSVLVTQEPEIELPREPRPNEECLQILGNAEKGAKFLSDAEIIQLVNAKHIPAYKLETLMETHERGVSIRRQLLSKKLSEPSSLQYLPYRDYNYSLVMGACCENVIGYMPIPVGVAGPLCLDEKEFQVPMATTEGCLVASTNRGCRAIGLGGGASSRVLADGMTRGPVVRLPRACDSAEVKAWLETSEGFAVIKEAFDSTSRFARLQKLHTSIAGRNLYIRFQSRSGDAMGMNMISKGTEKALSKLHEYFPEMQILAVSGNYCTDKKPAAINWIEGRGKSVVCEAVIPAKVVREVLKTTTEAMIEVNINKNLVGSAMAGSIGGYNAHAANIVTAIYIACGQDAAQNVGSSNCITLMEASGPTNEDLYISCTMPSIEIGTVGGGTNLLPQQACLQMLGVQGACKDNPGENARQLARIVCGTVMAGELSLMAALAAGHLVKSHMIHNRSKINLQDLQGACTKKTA
Excerpt: To that end, the degree of inhibition of the HMG-CoA reductase enzyme by the different (1S,3R,7S,8S,8aR)-1,2,3,7,8,8a-hexahydro-3,7-dimethyl-8-[2-[(2R,4R)-tetrahydro-4-hydroxy-6-oxo-2H-pyran-2-yl]ethyl-1-naphthalenyl propanoate derivatives, optionally mono- or di-methylated at the carbon in the alpha position of propanoic acid (NST0003, NST0004 and NST0005) was studied.
During the reaction, the HMG-CoA reductase uses NADPH as a reducing agent and 3-hydroxy-3-methylglutaryl coenzyme A (HMG-CoA) as a substrate. Mevalonic acid, which serves as a substrate for the following reaction in order to continue with the cholesterol synthesis, is obtained as a reaction product. The enzymatic reaction object of study is schematically shown as follows:
This in vitro assay is based on the spectrophotometric measurement of the decrease of absorbance at 340 nm, representing the oxidation of the NADPH by the catalytic subunit of the HMG-CoA reductase in the presence of the HMG-CoA reductase substrate. The assay was carried out in a 96-well plate, with a total reaction volume of 200 μl. The reaction buffer (50 mM KH2PO4, 1 M KCl, 2 mg/ml bovine serum albumin (BSA) and 5 mM DTT, at pH=7.3) was prepared at the time of carrying out the reaction and was maintained at 37° C.
Four independent assays were carried out. […] The concentrations of the reagents involved in the reaction mixture were the following: 0.2 mM HMG-CoA, 3 μU/reaction HMG-CoA reductase and 0.2 mM NADPH. After brief agitation, the reading of the plate was taken in a spectrophotometer at the conditions of 340 nm, 37° C., detecting the decrease of absorbance at 340 nm over time. The percentage of HMG-CoA reductase enzymatic activity with respect to the control was calculated. The IC50 was calculated with the data obtained by means of the Trimmed Spearman-Karber method (Version 1.5).

zebrafish larvae = assay: Inhibition of TBH-induced apoptosis in the brain of the zebrafish embryo (Acridine Orange); assay type: in vivo, zebrafish (Danio rerio); details: zebrafish larvae 96 hpf, TBH 0.45 mM, compound 1 μg/ml, 24 h
Procedure: To that end, an assay was performed on zebrafish larvae (96 hours post-fertilization). The fertilized eggs were obtained by a natural birth of adult zebrafish (AB strain) in the inventors' laboratory, carried out according to what is described in The Zebrafish Book [Westerfield, M. (1995) The Zebrafish Book. A Guide for the Laboratory Use of Zebrafish (Danio rerio). 3rd ed., University of Oregon Press, Eugene]. The eggs were collected in the 1st hour after spawning, washed and deposited in a clean Petri dish with embryo water (medium) (4.9 mM NaCl, 0.17 mM KCl, 0.33 mM CaCl.2H2O, 0.33 .mM MgSO4.7H2O, pH 7.2) prepared following the guidelines described in the book Zebrafish. Practical approach [Nusslein-Volhard, C and Dahm, R (2002) Zebrafish. Practical approach. Oxford: Oxford University Press].
The inhibition caused by the NST0003, NST0004 and NST0005 compounds on cell death caused by the tert-butyl hydroperoxide (TBH) compound, which is a pro-oxidizing compound which induces specific neurotoxicity in zebrafish larvae by means of the mechanism of apoptosis, was analyzed.
The larvae (at 96 hours post-fertilization [hpf]) were seeded in 96-well plates (3 larvae/well), performing a triplicate (3 wells) for experimental condition, thus obtaining an intra-assay triplicate. The larvae were treated in a total volume of embryo medium of 100 μl per well for the following conditions: (i) control (embryo medium); (ii), TBH [0.45 mM], which corresponds with the maximum tolerated dose (MTD), which induces neurotoxicity in the larvae but not mortality; and (iii) TBH [0.45 mM] and NST0003, NST0004 and NST0005, all at the concentration of 1 μg/ml. […]
Thus, the control larvae and the treated larvae were immersed in 1 μg/ml of AO in embryo water at 28.5° C. for 60 minutes. […] AO is a fluorescent compound which can be readily measured and quantified with a fluorometer. Therefore, the larvae were anesthetized with tricaine (3-aminobenzoic acid ethyl ester) and homogenized for their subsequent reading in a fluorescence plate reader (excitation: 488 nm; emission: 530 nm). […]

## CCC(=O)O[C@H]1C[C@@H](C)C=C2C=C[C@H](C)[C@H](CC[C@@H]3C[C@@H](O)CC(=O)O3)[C@H]21 [NST0003, (1S,3R,7S,8S,8aR)-1,2,3,7,8,8a-hexahydro-3,7-dimethyl-8-[2-[(2R,4R)-tetrahydro-4-hydroxy-6-oxo-2H-pyran-2-yl]ethyl-1-naphthalenyl propanoate]
HMG-CoA reductase enzyme
  IC50: 40.6 µM
  inhibition power of HMG-CoA reductase, times less than that of atorvastatin: 170 times
Zebrafish larvae
  reduction of apoptosis induced by TBH: 50.7±17.1%

## CC(C)C(=O)O[C@H]1C[C@@H](C)C=C2C=C[C@H](C)[C@H](CC[C@@H]3C[C@@H](O)CC(=O)O3)[C@H]21 [NST0004]
HMG-CoA reductase enzyme
  IC50: 23.2 µM
  inhibition power of HMG-CoA reductase, times less than that of atorvastatin: 100 times
Zebrafish larvae
  reduction of apoptosis induced by TBH: 45.3±18.9%

## C[C@H]1C=C2C=C[C@H](C)[C@H](CC[C@@H]3C[C@@H](O)CC(=O)O3)[C@H]2[C@@H](OC(=O)C(C)(C)C)C1 [NST0005]
HMG-CoA reductase enzyme
  IC50: 0.865 µM
  inhibition power of HMG-CoA reductase, times less than that of atorvastatin: 4 times
Zebrafish larvae
  reduction of apoptosis induced by TBH: 34.3±17.3%
